Source: PMC5570900, “Exploiting a novel conformational switch to control innate immunity mediated by complement protein C3a” (Nature Communications, 2017)

What was measured:
Rat plasma stability = format: in vitro ADME; conditions: neat rat plasma, 37 °C, over 4 h (C3a up to 10 min)
Description: (§1) For plasma stability studies, C3a and experimental compounds (10 μL, 1 mM in DMSO) were added to neat rat plasma (190 μL) and heated to 37 °C in a circulating water bath. Aliquots (20 µL) were collected at time points (0, 2, 5 and 10 min for C3a; 0, 5, 15, 30, 60, 120 and 240 min for other test compounds) and added directly to MeCN/H2O (80 µL, 9:1). The samples were centrifuged at 13,000 g for 3 min before supernatants were isolated and analyzed for test compound degradation via LC-MS. For liver microsomal stability studies, commercially available rat liver microsomes from Life Technologies, GIBCO were used. In brief, microsomes stored at −80 °C were slowly defrosted on ice. Test compounds (183 μL, 1 μM in 100 mM phosphate buffer pH 7.4 containing 0.1 % DMSO) were added to microsomes (5 μL) and NADPH (2 µL, 20 mM). Test solutions were heated in a circulating water bath at 37 °C for 5 min before additional cofactor NADPH (10 μL, 20 mM) was added. Aliquots (20 μL) were taken at time points (0, 5, 15, 30 and 60 min from the second addition of NADPH). Aliquots were added to MeCN/H2O (80 μL, 9:1) and centrifuged at 13,000 g for 3 min. Supernatants were analyzed for test compound degradation by LC-MSMS. Concentrations were plotted as a function of time on a semi-logarithmic graph. Rat plasma and microsomal activity was confirmed by rapid degradation of SLIGRL-NH2 (t1/2 < 5 min) in a parallel experiment.

[1] = tested on: wild-type human HEK293 cells (C3aR−/−); assay: Intracellular Ca2+ release in wild-type HEK293 cells; format: cell-based
C3aR [2] = target: T1, C3aR (Homo sapiens, UniProt Q16581); assay: Intracellular Ca2+ release in HEK293 cells transfected with C3aR; format: cell-based; parameters: Concentration-dependent Ca^2+ release in human monocyte-derived macrophages (HMDMs); endogenous in cells; host or cells: primary human monocyte-derived macrophages (HMDMs)
T1 sequence (Q16581 1-482): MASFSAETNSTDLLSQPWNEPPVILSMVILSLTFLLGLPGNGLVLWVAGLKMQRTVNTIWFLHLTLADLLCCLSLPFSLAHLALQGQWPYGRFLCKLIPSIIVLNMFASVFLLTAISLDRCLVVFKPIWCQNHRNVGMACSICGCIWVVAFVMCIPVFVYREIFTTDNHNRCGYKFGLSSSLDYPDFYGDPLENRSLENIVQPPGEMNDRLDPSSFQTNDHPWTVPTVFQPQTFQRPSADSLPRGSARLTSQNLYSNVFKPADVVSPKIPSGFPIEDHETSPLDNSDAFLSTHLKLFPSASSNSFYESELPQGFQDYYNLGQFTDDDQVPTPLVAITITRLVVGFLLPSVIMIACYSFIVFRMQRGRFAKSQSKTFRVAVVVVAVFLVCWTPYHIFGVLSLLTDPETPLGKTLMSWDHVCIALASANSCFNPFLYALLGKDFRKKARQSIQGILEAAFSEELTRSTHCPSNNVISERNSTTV

C5aR = target: T2, C5aR (Homo sapiens, UniProt P21730); assay: [125I]-hC5a competition binding on HMDMs; conditions: [125I]-hC5a 25 pM
T2 construct: endogenous in cells; host or cells: primary human monocyte-derived macrophages (HMDMs)
T2 sequence (P21730 1-350): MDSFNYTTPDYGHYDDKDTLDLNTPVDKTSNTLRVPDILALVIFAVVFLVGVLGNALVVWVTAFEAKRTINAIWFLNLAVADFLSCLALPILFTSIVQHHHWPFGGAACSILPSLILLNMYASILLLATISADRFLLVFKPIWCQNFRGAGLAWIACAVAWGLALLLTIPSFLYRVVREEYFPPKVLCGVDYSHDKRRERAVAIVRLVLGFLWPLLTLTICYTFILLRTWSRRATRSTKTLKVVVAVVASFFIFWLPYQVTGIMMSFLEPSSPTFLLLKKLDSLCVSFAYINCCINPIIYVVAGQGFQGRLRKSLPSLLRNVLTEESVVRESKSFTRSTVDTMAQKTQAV
Description: (§2) Receptor binding was performed by ligand competition with labelled 80 pM [^125I]-C3a or 25 pM [^125I]-C5a (2200 Ci/mmol; Perkin Elmer, Torrance, CA, USA) on HMDMs (1.2 × 10^6 cells/ml). HMDMs were treated with [^125I]-C3a or [^125I]-C5a ± various concentrations of unlabelled C3a/C5a or experimental ligands were diluted with assay buffer (50 mM Tris, 3 mM MgCl2, 0.1 mM CaCl2, 0.5% (w/v) BSA, pH 7.4) for 60 min at room temperature. Unbound [^125I]-C3a or [^125I]-C5a was removed by filtration through glass microfibre filter GF/B (Whatman Iner. Ltd, England) and washed three times with cold buffer (50 mM Tris-HCl pH 7.4). Bound [^125I]-C3a or [^125I]-C5a were assessed by scintillation counting on Microbeta counter. Specific binding was defined as the difference between total binding and nonspecific binding as determined in the presence of 1 μM unlabelled C3a or C5a[4].

[3] = Rat liver microsomal stability; format: in vitro ADME; conditions: rat liver microsomes, NADPH, 37 °C, over 1 h
Description: as §1

C3aR [4] = target: T1, C3aR; assay: [125I]-hC3a competition binding on HMDMs; parameters: Concentration-dependent Ca^2+ release in human monocyte-derived macrophages (HMDMs); endogenous in cells; host or cells: primary human monocyte-derived macrophages (HMDMs); conditions: [125I]-hC3a 80 pM
Description: as §2

SMILES | Stability in rat plasma (Rat plasma stability) | Intracellular Ca2+ release [1] | Effect on Ca2+ release induced by C3a or 3 (C3aR [2]; C3aR-HEK293 cells, pre-treatment 30 min before C3a or 3) | C5aR binding by competition with [125I]-hC5a (C5aR) | Stability in rat liver microsomes [3] | C3aR binding by competition with [125I]-hC3a (C3aR [4]) | Intracellular Ca2+ release (C3aR [2]; HEK293 cells transfected with C3aR (C3aR+/+), compound alone)
N=C(N)NCCCC(NC(=O)c1ccc(C(c2ccccc2)c2ccccc2)s1)C(=O)O (stereo not drawn) [Compound 6] | remained intact | did not induce Ca^2+ release | prevented | no binding | much more stable than C3a | compete with ^125I-labelled C3a | –
Cc1[nH]c(C(c2ccccc2)c2ccccc2)nc1C(=O)N[C@@H](CCCNC(=N)N)C(=O)O [Compound 3] | remained intact | did not induce Ca^2+ release | – | no binding | much more stable than C3a | compete with ^125I-labelled C3a | did induce Ca^2+ release
